Assay results: the supplement of paper PMC10627819

How the values were obtained:
B. subtilis 168 [1] = test: fitness (endpoint OD595 vs no drug) (fraction); higher = more growth
In short: (§1)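 Fitness expresses the optical density reached at the stationary-phase transition as a fraction of the robust mean of no-drug control wells. It is capped at 1. Measurements were OD595 every 30 min for 14 h at 37 °C after inoculation of 384-well plates at OD595 0.01 (30 µl, or 55 µl for S. pneumoniae), minus the first reading.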

S. pneumoniae D39V [2] = test: as above
In short: as §1

B. subtilis 168 [3] = test: Bliss interaction score (quartile over a dose matrix) (fitness difference); higher = more antagonism (negative = synergy)
In short: (§2)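 Fitness here means normalised growth, inferred for single drugs from the combination data. Growth was OD595 at entry into stationary phase, divided by the plate's robust no-drug mean and capped at 1. The Bliss score is observed minus expected fitness, with the expectation being the product, and its quartiles span technical, biological and donor/recipient replicates.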

S. aureus DSM 20231 = test: as above
In short: as §2

S. aureus Newman = test: as above
In short: as §2

S. pneumoniae D39V [4] = test: as above
In short: as §2
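Wherever Bliss interaction score (quartile over a dose matrix) is given: first quartile when negative (synergy) and third quartile when positive (antagonism).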
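Wherever fitness (endpoint OD595 vs no drug) is given: OD595 on entry to stationary phase over no-drug wells; at most 1.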

CCC[C@@H]1C[C@@H](C(=O)N[C@@H]([C@H]2O[C@H](SC)[C@H](O)[C@@H](O)[C@H]2O)[C@H](C)Cl)N(C)C1 [Clindamycin] + CCC(C)C1C(=O)NC(=C)C(=O)NC(C(=O)NC(CSCC(C(=O)N1)NC(=O)/C(=C/C)/NC(=O)C(C(C)CC)N)C(=O)NC2C(SCC(NC(=O)CNC(=O)C3CCCN3C2=O)C(=O)NC(CCCCN)C(=O)NC4C(SCC(NC(=O)CNC(=O)C(NC(=O)C(NC(=O)C(NC(=O)CNC4=O)C)CC(C)C)CCSC)C(=O)NC(CC(=O)N)C(=O)NC(CCSC)C(=O)NC(CCCCN)C(=O)NC5C(SCC6C(=O)NC(C(=O)NC(CSC(C(C(=O)N6)NC(=O)C(NC5=O)C)C)C(=O)NC(CO)C(=O)NC(C(C)CC)C(=O)NC(CC7=CN=CN7)C(=O)NC(C(C)C)C(=O)NC(=C)C(=O)NC(CCCCN)C(=O)O)CC8=CN=CN8)C)C)C)CC(C)C [Nisin]
fitness, B. subtilis 168 [1], one replicate, main component drawn
Conditions	first compound 0.0039 µg/mL	first compound 0.0078 µg/mL	first compound 0.0156 µg/mL	first compound 0.0625 µg/mL	first compound 0.125 µg/mL	first compound 0.25 µg/mL
partner 0.5 µg/mL	0.985	0.875	0.858	0.559	0.461	0.402
partner 1 µg/mL	0.936	0.847	0.834	0.565	0.389	0.371
partner 1.25 µg/mL	–	–	–	0.647	0.47	0.386
partner 1.6 µg/mL	–	–	–	0.455	0.196	0.0539
partner 2 µg/mL	0.855	0.771	0.742	0.261	0.25	0.0613
partner 2.5 µg/mL	–	–	–	0.564	0.423	0.275
partner 3.2 µg/mL	–	–	–	0.0252	0.0383	0.0454
partner 4 µg/mL	–	–	–	0.0334	0.0299	0.0361
partner 5 µg/mL	–	–	–	0.171	0.0548	0.0507
partner 6.4 µg/mL	–	–	–	0.0392	0.0456	0.0461
partner 8 µg/mL	–	–	–	0.0341	0.0157	0.0269
partner 16 µg/mL	–	–	–	0.0049	0.0089	0.0163

S. pneumoniae D39V [2], main component drawn
Conditions	fitness
first compound 0.0125 µg/mL, partner 1.6 µg/mL	0.0319
first compound 0.0125 µg/mL, partner 3.2 µg/mL	0.0224
first compound 0.0125 µg/mL, partner 6.4 µg/mL	0.0205
first compound 0.015 µg/mL, partner 0.4275 µg/mL	0.923
first compound 0.015 µg/mL, partner 1.71 µg/mL	0.11
first compound 0.025 µg/mL, partner 1.6 µg/mL	0.0417
first compound 0.025 µg/mL, partner 3.2 µg/mL	0.0389
first compound 0.025 µg/mL, partner 6.4 µg/mL	0.0111
first compound 0.03 µg/mL, partner 0.4275 µg/mL	0.774
first compound 0.03 µg/mL, partner 1.71 µg/mL	0.0769
first compound 0.05 µg/mL, partner 1.6 µg/mL	0.0221
first compound 0.05 µg/mL, partner 3.2 µg/mL	0.0421
first compound 0.05 µg/mL, partner 6.4 µg/mL	0.0305
first compound 0.06 µg/mL, partner 0.4275 µg/mL	0.645
first compound 0.06 µg/mL, partner 0.855 µg/mL	0.252
first compound 0.06 µg/mL, partner 1.71 µg/mL	0.0778

main component drawn
Conditions	Bliss interaction score
B. subtilis 168 [3]	0.0605
S. aureus DSM 20231	0.0292
S. aureus Newman	0.0857
S. pneumoniae D39V [4]	-0.0351

CCC[C@@H]1C[C@@H](C(=O)N[C@@H]([C@H]2O[C@H](SC)[C@H](O)[C@@H](O)[C@H]2O)[C@H](C)Cl)N(C)C1 [Clindamycin] + CN(C)C(=O)C(CCN1CCC(O)(c2ccc(Cl)cc2)CC1)(c1ccccc1)c1ccccc1 [Loperamide]
fitness, one replicate
Conditions	first compound 0.0039 µg/mL	first compound 0.0078 µg/mL	first compound 0.015 µg/mL	first compound 0.0156 µg/mL	first compound 0.03 µg/mL	first compound 0.06 µg/mL
B. subtilis 168 [1], partner 25 µg/mL	0.924	0.814	–	0.793	–	–
B. subtilis 168 [1], partner 50 µg/mL	0.862	0.754	–	0.595	–	–
B. subtilis 168 [1], partner 100 µg/mL	0.53	0.385	–	0.259	–	–
S. pneumoniae D39V [2], partner 68.57 µg/mL	–	–	0.982	–	0.896	0.725

Conditions	fitness
B. subtilis 168 [1], first compound 0.0625 µg/mL, partner 25 µg/mL	0.577
B. subtilis 168 [1], first compound 0.0625 µg/mL, partner 50 µg/mL	0.0289
B. subtilis 168 [1], first compound 0.0625 µg/mL, partner 100 µg/mL	0.0293
B. subtilis 168 [1], first compound 0.125 µg/mL, partner 25 µg/mL	0.418
B. subtilis 168 [1], first compound 0.125 µg/mL, partner 50 µg/mL	0.0399
B. subtilis 168 [1], first compound 0.125 µg/mL, partner 100 µg/mL	0.0277
B. subtilis 168 [1], first compound 0.25 µg/mL, partner 25 µg/mL	0.254
B. subtilis 168 [1], first compound 0.25 µg/mL, partner 50 µg/mL	0.0473
B. subtilis 168 [1], first compound 0.25 µg/mL, partner 100 µg/mL	0.0404
S. pneumoniae D39V [2], first compound 0.0125 µg/mL, partner 20 µg/mL	0.82
S. pneumoniae D39V [2], first compound 0.0125 µg/mL, partner 40 µg/mL	0.859
S. pneumoniae D39V [2], first compound 0.0125 µg/mL, partner 80 µg/mL	0.858
S. pneumoniae D39V [2], first compound 0.015 µg/mL, partner 17.14 µg/mL	0.938
S. pneumoniae D39V [2], first compound 0.015 µg/mL, partner 34.28 µg/mL	0.946
S. pneumoniae D39V [2], first compound 0.025 µg/mL, partner 20 µg/mL	0.614
S. pneumoniae D39V [2], first compound 0.025 µg/mL, partner 40 µg/mL	0.62
S. pneumoniae D39V [2], first compound 0.025 µg/mL, partner 80 µg/mL	0.597
S. pneumoniae D39V [2], first compound 0.03 µg/mL, partner 17.14 µg/mL	0.778
S. pneumoniae D39V [2], first compound 0.03 µg/mL, partner 34.28 µg/mL	0.769
S. pneumoniae D39V [2], first compound 0.05 µg/mL, partner 20 µg/mL	0.316
S. pneumoniae D39V [2], first compound 0.05 µg/mL, partner 40 µg/mL	0.329
S. pneumoniae D39V [2], first compound 0.05 µg/mL, partner 80 µg/mL	0.285
S. pneumoniae D39V [2], first compound 0.06 µg/mL, partner 17.14 µg/mL	0.688
S. pneumoniae D39V [2], first compound 0.06 µg/mL, partner 34.28 µg/mL	0.639

Conditions	Bliss interaction score
B. subtilis 168 [3]	0.149
S. aureus DSM 20231	0.0957
S. aureus Newman	-0.0895
S. pneumoniae D39V [4]	0.2
